# Assay results reported in US20260109695A1, “PEROXIREDOXIN 3 INHIBITORS AND METHODS OF USE FOR TREATING CANCER” (WAKE FOREST UNIVERSITY HEALTH SCIENCES, priority 2022, published 2026).
# Experiments:
# [1] = test system: human SK-OV-3 ovarian cancer cells; experiment: Cellular Activity Assay (cytotoxicity, crystal violet); type: cell-based; settings: SK-OV-3 cells, 48 hr treatment
# Text: (§1) To test the activity of compounds, two complimentary assays were used as described below. The Biochemical PRX3 Inhibition Assay tests the ability of each compound to crosslink PRX3 in a simple, in vitro system. In the Cellular Activity Assay, we are testing the ability of compounds to kill SK-OV-3 ovarian cancer cells.
# The Cellular Activity Assay measures the EC50 of each compound in human SK-OV-3 ovarian cancer cells TS to be taken into the cell, transported to the mitochondria, and crosslink PRX3.
# The cytotoxicity of compounds was measured as described in Nelson et al. (2021) Antioxidants (Basel) 10, 150; Cunniff et al. (2015) PloS one 10, e0127310; and Newick et al. (2012) PloS one 7, e39404. SK-OV-3 is an adherent, epithelial, adenocarcenoma cell line obtained from ATCC (ref #: HTB-77). SK-OV-3 cells are resistant to the commonly used chemotherapeutics, cis-platinum and doxorubicin. For this PRX3 crosslinking assay, SK-OV-3 cells were plated in a 96-well plate. After 24 h recovery, the cells were treated for 48 hr with multiple concentrations of each compound ranging from 0.1-100 μM.
# Cells were washed with PBS to remove dead cells and the remaining live cells were fixed with 3.0% formaldehyde and stained with 0.1% crystal violet. The amount of crystal violet was determined by reading the absorbance at 540 nm (crystal violet dye dissolved in 100% methanol) using a plate reader. The signal for crystal violet dye is proportional to the biomass of remaining live cells. GraphPad Prism9 software was used to calculate the effective inhibitory concentration (EC50) of test compounds. Results for each compound, are normalized to the amount of cells in control wells treated with the equivalent concentration of DMSO (negative control). TS or Compound B were included in each set of assays as a positive control.
# purified human PRX3 = target: T1, purified human PRX3 (Homo sapiens, UniProt P30048); experiment: Biochemical PRX3 Inhibition Assay (crosslink by SDS-PAGE, mono-adduct by MALDI-TOF MS); settings: 1-2 hr at 37° C.
# T1 construct: made in house
# T1 sequence (P30048 62-256): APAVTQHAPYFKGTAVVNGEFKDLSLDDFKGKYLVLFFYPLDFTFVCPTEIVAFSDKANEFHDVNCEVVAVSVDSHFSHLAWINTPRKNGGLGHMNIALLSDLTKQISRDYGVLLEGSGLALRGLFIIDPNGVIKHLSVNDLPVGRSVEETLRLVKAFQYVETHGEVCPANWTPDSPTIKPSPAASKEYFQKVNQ
# Procedure: as §1
# This assay tests the ability of each compound to form a covalent adduct with PRX3. The assay is performed as described in Nelson et al. (2021) Antioxidants (Basel) 10, 150; and Cunniff et al. (2015) PloS one 10, e0127310, and follows the appearance of non-reducible PRX3 crosslinks by SDS PAGE gel electrophoresis and follows the appearance of single PRX3 adducts by mass spectrometry. For this assay, purified human PRX3, hydrogen peroxide (the PRX3 substrate) and all the components required to enable PRX3 to catalytically cycle (thioredoxin-thioredoxin reductase-NAPDH system) are included (details below).
# The biochemical PRX3 Inhibition assay contains 100 µM PRX3, 50 µM human TRX2, […] mouse thioredoxin reductase, and a NADPH regenerating system composed of 3.2 mM glucose 6-phosphate, 3.2 U/ml glucose 6-phosphate dehydrogenase and 0.4 mM NADPH. Samples are incubated for 1-2 hr at 37° C. with either 0.2 mM TS (positive control), compounds or an equivalent volume of DMSO (negative control). During this incubation, hydrogen peroxide is added to induce turnover of PRX3. Reactions are stopped by the addition of a buffer containing 100 mM dithiolthreitol (to break disulfide bonds) and SDS (detergent to denature proteins). NADPH, Glucose 6-Phosphate, and glucose 6-phosphate dehydrogenase were purchased from Sigma Aldrich. PRX3, thioredoxin, and thioredoxin reductase were all purified to >98% purity in the Lowther laboratory according to protocols referenced in Nelson et al. (2021) Antioxidants (Basel) 10, 150; and Cunniff et al. (2015) PloS one 10, e0127310.
# To measure the amount of PRX3 crosslink, proteins in the reaction were separated by SDS-polyacrlyamide gel electrophoresis and stained for total protein using GelCode Blue (Life Technologies). The amount of unmodified PRX3 and TS-PRX3 crosslink was measured by densiometric analysis of the signal for the PRX3 band running at the MW of a PRX3 crosslink (−46 kDa) compared to the PRX3 signal at the MW of the un-modified PRX3 (˜23 kD).
# To measure covalent adduct formation on a single PRX3 monomer, each reaction was exchanged into a mass spectrometry compatible buffer containing 40 mM ammonium citrate, pH 8.3 made in HPLC water. Sample was mixed 1:1 with a matrix solution containing 30 mg/mL sinapinic acid in 70% (vol/vol) acetonitrile, 0.2% formic acid and spotted to onto the sample plate. PRX3 mass was measured by MALDI-TOF MS analysis on a Bruker Daltonics MALDI-TOF MS spectrometer. Spectra were analyzed in FLEXAnalysis Software. The intensity of the reduced PRX3 peak (SH) and intensity of the analog adduct peak was determined and corrected for background signal at the adduct peak in the DMSO control. The fraction of single analog adduct in the monomer peak was determined by dividing the intensity of the adduct peak by the summed intensity of the SH and adduct peaks.
# Solubility Assay = type: physicochemical; settings: 20 mM HEPES, 100 mM NaCl, pH 7.5, 18-24 hours at ambient temperature
# Procedure: A 20 mM stock solution was made for each compound in DMSO. To measure solubility, 0.03-0.05 mL of the stock was added to 0.27 mL 20 mM HEPES, 100 mM NaCl, pH 7.5. The solution was mixed and rotated 18-24 hours at ambient temperature. The next day, solutions were centrifuged for 10 min at 20,000×g at 24° C. to remove insoluble, solid material. Next, 100 μL of the supernatant containing the soluble compound was added to 900 μL DMSO and High Performance Liquid Chromatography was performed as described in Table 1 and either HPLC gradient 1 (Table 2) for HPLC gradient 2 (Table 3). For each analog, a 200 μM standard and a 20 μM standard were prepared and run in parallel (standards were dissolved completely in 100% DMSO). The amount of compound in the experimental sample was calculated by comparing the area under the curve for compound peak to the area for the closest standard and correcting for dilution.
# [2] = test system: Enterococcus hirae (ATCC #10541); experiment: Antimicrobial Activity Assay; type: cell-based
# Procedure: The overnight growth was then diluted into growth media to make a single solution of E. hirae with a final optical density at 600 nm=0.02 AU. A 20 mM stock solution of Thiostrepton in DMSO was made and used to make multiple dilutions of TS in DMSO. Each TS dilution (0.1 mL) was then added to a test tube containing 10 mL of the diluted E. hirae and grown at 37° C. overnight while shaking at 180 rpm. The next morning, each tube was visually inspected to determine if the cells grew. Final concentrations tested were 0.120, 0.090, 0.075, 0.060, 0.045, 0.030, and 0.015 μM TS. […] Three replicates were made on three separate days (n=9). […] For TS analogs, the dilute E. hirae was treated with 20 µM final concentration of each analog (three replicates each). […] DMSO was used as a positive control (complete cell growth) and 20 µM thiostrepton was used as a negative control.
# 578 cancer cells lines = settings: of 578 cancer cells lines tested; cited from earlier work
# [3] = E. hirae, overnight at 37° C., n=9
smiles,measurement,setting,value
"C=C(NC(=O)C(=C)NC(=O)c1csc(C2=N[C@@H]3c4csc(n4)[C@H]4NC(=O)c5csc(n5)[C@H]([C@](C)(O)[C@@H](C)O)NC(=O)[C@H]5CSC(=N5)/C(=C/C)NC(=O)[C@H]([C@@H](C)O)NC(=O)c5csc(n5)[C@]3(CC2)NC(=O)[C@H](C)NC(=O)C(=C)NC(=O)[C@H](C)NC(=O)[C@H]([C@@H](C)CC)N[C@@H]2C=Cc3c([C@H](C)O)cc(nc3[C@H]2O)C(=O)O[C@@H]4C)n1)C(N)=O [Thiostrepton, reference compound]",EC50,[1],1 to 10 µM
same,PRX3 Inhibition (Crosslink + Mono-adduct),purified human PRX3,++ (50-90%)
same,solubility,Solubility Assay,+ (<0.1 mM)
same,TS concentrations at which complete growth was observed,[2]; [3],≤ 0.030 µM
same,TS concentrations at which no growth was observed,[2]; [3],≥ 0.045 µM
same,MIC,"[2]; Enterococcus hirae, ATCC10541, read-out: Antimicrobial Activity",0.02 to 0.2 µM
same,Number of tumor cells lines with meaningful efficacy,578 cancer cells lines,403
